What was measured:
Assay type in all cases: ADME, cell-based; call rule not given here
[1] = biological target: T1, OAT3 (Homo sapiens, UniProt Q8TCC7); experiment: (§1) Inhibition of human OAT3 expressed in CHO cells assessed as inhibition of fluorescein uptake at 500 uM over 20 mins relative to untreated-control; conditions: CHO cells expressing human OAT3, probe fluorescein
T1 sequence (Q8TCC7 whole entry): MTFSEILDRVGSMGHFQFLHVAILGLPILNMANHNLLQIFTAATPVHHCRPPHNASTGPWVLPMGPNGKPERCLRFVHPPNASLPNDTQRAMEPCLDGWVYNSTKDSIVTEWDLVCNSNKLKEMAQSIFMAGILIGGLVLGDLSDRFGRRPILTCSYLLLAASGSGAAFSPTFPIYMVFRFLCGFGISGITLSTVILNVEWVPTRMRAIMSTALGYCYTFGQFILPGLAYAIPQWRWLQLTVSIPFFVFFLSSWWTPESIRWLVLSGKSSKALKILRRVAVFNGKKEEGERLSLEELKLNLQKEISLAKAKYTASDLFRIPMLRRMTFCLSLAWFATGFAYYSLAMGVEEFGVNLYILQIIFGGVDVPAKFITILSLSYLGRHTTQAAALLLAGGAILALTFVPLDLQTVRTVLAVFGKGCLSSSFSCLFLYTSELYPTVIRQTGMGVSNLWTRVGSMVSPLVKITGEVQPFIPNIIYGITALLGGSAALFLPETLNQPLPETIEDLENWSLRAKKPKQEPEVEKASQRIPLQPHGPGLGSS

[2] = biological target: T2, Organic anion transporter 3 (Mus musculus, UniProt O88909); experiment: Inhibition of mouse OAT3 expressed in CHO cells assessed as inhibition of fluorescein uptake at 500 uM over 20 mins relative to untreated-control
T2 sequence (O88909 whole entry): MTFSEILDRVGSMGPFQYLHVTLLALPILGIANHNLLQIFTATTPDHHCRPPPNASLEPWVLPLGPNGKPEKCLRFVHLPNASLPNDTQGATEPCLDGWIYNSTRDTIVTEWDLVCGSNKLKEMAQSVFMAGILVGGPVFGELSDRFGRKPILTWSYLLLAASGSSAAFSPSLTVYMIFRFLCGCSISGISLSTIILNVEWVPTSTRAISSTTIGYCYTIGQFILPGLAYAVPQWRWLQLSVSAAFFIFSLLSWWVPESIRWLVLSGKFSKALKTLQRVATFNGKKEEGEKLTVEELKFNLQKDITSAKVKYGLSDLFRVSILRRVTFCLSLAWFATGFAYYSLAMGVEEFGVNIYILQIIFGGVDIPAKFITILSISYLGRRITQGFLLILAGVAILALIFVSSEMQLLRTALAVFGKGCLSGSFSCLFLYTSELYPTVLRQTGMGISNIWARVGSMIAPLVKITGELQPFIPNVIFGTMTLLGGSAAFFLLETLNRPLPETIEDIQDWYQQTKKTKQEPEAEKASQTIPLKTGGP

[3] = biological target: T2, Organic anion transporter 3; experiment: Inhibition of mouse OAT3 expressed in CHO cells assessed as inhibition of fluorescein uptake at 1 mM over 20 mins relative to untreated-control; conditions: 1000 µM
[4] = biological target: T2, Organic anion transporter 3; experiment: Inhibition of mouse OAT3 expressed in CHO cells assessed as inhibition of fluorescein uptake over 20 mins by Michaelis-Menten method
[5] = biological target: T3, Organic anion transporter 3 (Homo sapiens, UniProt Q8TCC7); experiment: as §1; conditions: cho, 20 min, 500 µM
T3 sequence (Q8TCC7 whole entry): T1 sequence (Q8TCC7 whole entry)

[6] = biological target: T2, Organic anion transporter 3; experiment: Inhibition of mouse OAT3 expressed in CHO cells assessed as inhibition of fluorescein uptake at 1 mM after 10 mins; conditions: 1000 µM
[7] = biological target: T3, Organic anion transporter 3; experiment: Inhibition of human OAT3 expressed in CHO cells assessed as inhibition of fluorescein uptake over 20 mins by Michaelis-Menten method
[8] = biological target: T3, Organic anion transporter 3; experiment: Inhibition of human OAT3 expressed in CHO cells assessed as inhibition of fluorescein uptake at 1 mM over 20 mins relative to untreated-control; conditions: 1000 µM
[9] = biological target: T2, Organic anion transporter 3; experiment: Inhibition of mouse OAT3 expressed in CHO cells assessed as inhibition of fluorescein uptake over 20 mins

| Structure (SMILES) | inhibition at 20 min, 500 µM [1] [%] | inhibition (INH) [2] | inhibition (INH) [3] | inhibition (INH) [4] | inhibition (INH) [5] | inhibition (INH) [6] | inhibition (INH) [7] | inhibition (INH) [8] | IC50 [9] [µM] |
| --- | --- | --- | --- | --- | --- | --- | --- | --- | --- |
| CC1=C(C(=O)O)N2C(=O)[C@@H](NC(=O)[C@H](N)c3ccc(O)cc3)[C@H]2SC1 [CEFADROXIL] | 20 | Not Active | Not Active | – | – | – | – | – | – |
| CCCN(CCC)S(=O)(=O)c1ccc(C(=O)O)cc1 [PROBENECID] | – | Not Active | Active | Dose-dependent effect | Not Active | Active | Dose-dependent effect | Active | 3.02 |
